From a melting point compilation (Tetko et al.; mined from patent text by program, amines drawn as free bases though some values may be those of a salt)

Row | melting point [°C] | SMILES
1 | 216 to 217 | CN(C1CCN(CC(C)(C)O)CC1)S(=O)(=O)c1ccc(Nc2nccc(Nc3ccc(F)cc3)n2)cc1
2 | 283 to 285 | CCOc1ccc(-c2nc(-c3ccc(S)cc3C(=O)O)cs2)cc1OCC
3 | 97 to 99 | O[C@H]1CC[C@H](N(Cc2ccccc2)Cc2ccccc2)CC1
4 | 193 to 195 | Cc1c(CN(O)Cc2ccccc2)c(C)c(CN(O)Cc2ccccc2)c(C)c1CN(O)Cc1ccccc1
5 | 162 to 164 | CCCCc1oc2ccccc2c1C(=O)NCc1ccc2c(-c3ccc(C(C)(C)C)cc3)c(OCC#N)ccc2c1
6 | 113 to 115 | O=C(O)c1cc(Cl)ccc1OCc1ccccc1
7 | 181 to 185 | CC(C)C(C(=O)O)N(CCN1CCOCC1)S(=O)(=O)c1ccc(-c2ccc(NC(=O)c3cc4ccccc4o3)cc2)cc1 (centres undefined)
8 | 205 to 207 | NC(=O)CC(CC(N)=O)c1cccc(OCc2ccccc2)c1
9 | 170 | O=C(c1cccs1)c1cnn2c(-c3cccc(-c4nnn(CC5CCC5)n4)c3)ccnc12
10 | 176 to 177 | O=C(O)Cn1cccc(OCc2ccccc2)c1=O
11 | 137 to 142 | COc1ccc(S(=O)(=O)Nc2ccccc2/C=C/c2ccccn2)cc1
12 | 254 to 256 | CCn1c(=O)c(-c2ccc3ccccc3c2)cc2cnc(Nc3ccccc3)nc21
13 | 136 to 137 | FC(F)(F)Oc1ccc(-c2ccc(OCc3ccccc3)cc2)cc1
14 | 197 to 198 | O=C(CCl)Nc1ccc2c(c1NC(=O)c1cccc(F)c1)C(=O)c1ccccc1C2=O
15 | 197 | N#CC(c1ccc(Cl)cc1)c1ccc(-n2ncc(=O)[nH]c2=O)cc1Cl (centres undefined)
16 | 144 to 146 | CCCN1C(=O)C2(c3ccccc3)CC(c3ccc([N+](=O)[O-])cc3)(C2)C1=O
17 | 136 to 145 | O=c1ncccn1Cc1ccc2ccccc2c1
18 | 250 | Cc1cc(-c2ccc(C(F)(F)F)cc2)cc(-c2cccc(-c3cccc(S(N)(=O)=O)c3)n2)n1
19 | 106 to 108 | O=Cc1cc(-c2ccccc2F)n(S(=O)(=O)c2cccnc2)c1

Row | melting point [°C] | SMILES
20 | > 200 | CCOC(=O)Cn1c2c([nH]c(=O)c1=O)CCC1=C2C=C(n2ccc(CN3CCN(C(c4ccccc4)c4ccccc4)CC3)c2)CC1
21 | 270 to 271 | Cn1nnnc1-c1ccc2c(c1)S(=O)(=O)c1ccccc1C2=O
22 | 170 | Cc1cccc(NC(=O)NCC(=O)N(CC(=O)N(c2ccccc2)C(C)C)c2ccccc2)c1
23 | 172 to 173 | CCCCc1nc(Cl)c(COC(C)=O)n1Cc1ccc(-c2cccc(C(=O)O)c2)cc1
24 | 204 | COc1ccccc1C(=C1CN(C(c2ccccc2)c2ccccc2)C1)S(C)(=O)=O
25 | 118 | CC(C)(C)OC(=O)Nc1ccc(-c2cccc(F)c2F)cc1NC(=O)CC(=O)c1cccc(C#N)c1
26 | 96 to 98.5 | CCc1nnc(C(CCN2CC3CCC2CC3)(c2ccccc2)c2ccccc2)o1
27 | 112 to 113 | Cc1cccc(Nc2cc(Nc3cccc(OCC(=O)N(CCO)CCO)c3)ncn2)c1
28 | > 270 | O=S(=O)(O)c1ccc(NCc2ccccc2F)cc1
29 | 58 to 59 | O=C(NCCc1ccccc1)c1ccccn1
30 | 151 to 152 | Cc1oc(-c2ccccc2)nc1COc1cccc(CN(O)C(N)=O)c1
31 | 176 to 177 | COCCNC(=O)c1cccc(-c2nc(=O)c3ccccc3s2)n1
32 | 75 to 77 | CN(CCc1ccc(Nc2ncc3c(n2)-c2ccccc2C(c2cccc(Br)c2)C3)cc1)CCc1ccccn1 (centres undefined)
33 | 83 | COc1cc(NC(C)=O)ccc1N1C(=O)C(C)(c2ccccc2Cl)c2cc(Cl)ccc21 (centres undefined)
34 | 150 to 153 | N#Cc1c(Nc2c(F)cccc2F)cccc1Oc1ccccc1
35 | > 250 | CC(C)n1nc(-c2nc(C#Cc3cncn3C)c(N)nc2-c2ccccc2)ccc1=O
36 | 99 to 101 | O=P1(c2ccccc2)c2ccccc2CN1Cc1ccccc1 (centres undefined)
37 | 197 to 199 | Cc1ccc(C(=O)Nc2ccc(C(=O)N3Cc4ccccc4Cc4ccccc43)cc2)c(C)c1

Further lines, the compound ahead of its results:

Row | SMILES | melting point [°C]
38 | CCCn1c(=O)c2nc(C(C)Cc3ccc(OCC(=O)O)cc3)[nH]c2n(CCC)c1=O (centres undefined) | 168 to 170
39 | CCS(=O)(=O)c1cc(OC)c(OC)c(C(=O)Cl)c1 | 67 to 68
40 | CN(C)c1ccc([PH](=O)c2ccc(N(C)C)cc2)cc1 | 152
41 | COC(=O)CCc1nc(CCc2ccc(C(=O)OC)cc2)ccc1OCCCC/C=C/c1ccc(OC)cc1 | 59 to 61
42 | O=C(OC1c2nccnc2C(=O)N1c1ccc2ccc(Cl)nc2n1)N1CCCCC1 (centres undefined) | 249
43 | OCCC1Cc2ccccc2C1O (centres undefined) | 80 to 82
44 | CCCc1ccc(Oc2ccc3c(c2)C=C(C(=O)Nc2ccc(CN(C)C4CCOCC4)cc2)CCS3(=O)=O)cc1 | 147 to 149
45 | CNc1nn(C)c2nc3n(c(=O)c12)CCS3 | 255 to 256
46 | O=C(O)C1CS(=O)(=O)C2CC(=O)N12 (centres undefined) | 164 to 167
47 | CC(C=O)C1CCC2C3CCC4CCCCC4(C)C3CCC12C (centres undefined) | 248 to 252
48 | CCC(C)(C)n1nnnc1S | 104 to 106
49 | COc1ccc(Cl)cc1C(C)(C)O | 56
50 | COc1cc(C(=O)O)cc(Cl)c1Cl | 218 to 219
51 | CCC(=O)NCCC1=CCc2cc(Br)c(OC)cc21 | 106 to 109
52 | CC(=O)N1CCc2cc(N)cnc21 | 193 to 195
53 | CCn1cc(C(=O)O)c(=O)c2cnc(N3CCN(Cc4ccc([N+](=O)[O-])cc4)CC3)nc21 | 259 to 261
54 | Cc1nc(N2CCN(Cc3ccc(F)cc3)C2=O)sc1C(=O)NCc1ncccn1 | 205 to 207
55 | C[C@H]([C@](O)(Cn1cncn1)c1ccc(F)cc1F)S(=O)(=O)N1CCN(c2ccc(F)cc2)CC1 | 128 to 130
56 | O=C(O)c1ccc(C=Cc2ccc(C(=O)O)cc2)cc1 | > 280
57 | CCCc1nn(-c2ccc(C(F)(F)F)cn2)cc1CCCOc1ccc(OC)c(CCC(=O)O)c1 | 104 to 106
58 | OCc1cncn1C1CCCCC1 | 133 to 134

Row | SMILES | melting point [°C]
59 | CCC(C(=O)c1ccc(Cl)cc1)n1ncn(-c2ccc(N3CCN(C(C)=O)CC3)cc2)c1=O (centres undefined) | 125
60 | COc1cc2ncnc(Nc3cccc(Cl)c3F)c2cc1OC1CCN(C(=O)CO)CC1 | 196
61 | CNc1cc(C)ccc1C(C)=O | 47
62 | COC(=O)C1=C(CO)NC(C)=C(C(=O)OC(C)C)C1c1ccccc1C#N (centres undefined) | 134 to 137
63 | O=C1Nc2cccnc2N(C(=O)NCCN2CCC(CCCN3CCCCC3)CC2)c2cc(Cl)ccc21 | 176 to 177
64 | CC(C)(C)OC(=O)NCCC(=O)c1c(Cl)cccc1[Si](C)(C)C | 51 to 52
65 | CSc1sc(-c2nccs2)c2c1-c1oncc1CC2 | 165 to 168
66 | ClCCOc1cccc(OCCCl)c1 | 104 to 105
67 | Cc1ccc2c(=O)n(S(=O)(=O)c3ccc(Cl)cc3)c(=O)[nH]c2c1C | 241 to 245
68 | COc1ccc2sc(C(N)=O)c(S(=O)(=O)C(C)C)c2c1 | 169 to 170
69 | CCC(=CC(CNC(=O)c1sc(C)nc1C)=NO)C(C)[N+](=O)[O-] (centres undefined) | 158 to 159
70 | CN(C)c1ccc(C(c2ccc(N(C)C)cc2)c2ccc(N(C)C)cc2C(=O)O)cc1 | 210 to 212
71 | CCOc1ccccc1OCC(O)CNC(C)=CC(=O)c1cccnc1 (single isomer, unassigned; (-)) | 94
72 | Oc1cccc(C(O)CNCCCCn2cnc3ccccc32)c1 (centres undefined) | 58 to 62
73 | CC(=O)c1cc(S(=O)(=O)c2cccc(F)c2)ccc1OC[C@@H]1CO1 | 113 to 115
74 | CCCCCCCCCCCC(=O)c1ccc(/C=C/C(=O)O)o1 | 122 to 127
75 | CC1(C)CC(=O)N(C(=O)Nc2ccccc2)CC(C)(C)N1O | 112 to 114
76 | CC1CC(=O)NN=C1c1cccc(C(F)(F)F)c1 (centres undefined) | 132 to 134
77 | Cc1ccc(S(=O)(=O)NC(=O)Nc2ccc(C(F)(F)F)cc2)cc1 | 194 to 197
78 | COc1cc(CCC2(CCc3ccc(O)c(OC)c3)CC(O)=C(Sc3cc(C)c(OCCO)cc3C(C)(C)C)C(=O)O2)ccc1O | 76 to 82
79 | Clc1ccc([C@H]2CC[C@H](CBr)CC2)cc1 | 36 to 38

Row | SMILES | melting point [°C]
80 | CCCCc1cc(C#N)sc1-c1ccc2c(c1)C(C)(C)OC(=S)N2 | 174 to 175
81 | CCOC(=O)C(=O)Nc1cc(C)ccc1[N+](=O)[O-] | 114
82 | O=C(O)c1cn([C@@H]2C[C@@H]2F)c2cc(F)ccc2c1=O | 302 to 305
83 | COC(=O)C[C@@H]1C[C@@H](COc2ccc(-c3ccc(C#N)cc3)cc2)NC1=O | 138 to 140
84 | Oc1ccc(C(=C2CCCCCC2)c2ccc(Br)cc2)cc1F | 102 to 104
85 | CCOC(=O)C1=C(C)NC(COCc2cccnc2)=C(C(=O)OCC)C1c1ccccc1[N+](=O)[O-] (centres undefined) | 133 to 135
86 | CC1CC2=CC(=O)CCC2=C2CCC3(C)C(=O)CCC3C21 (centres undefined) | 204 to 205
87 | O=C(O)c1ncn2c1CSC2 | 184 to 185
88 | COC(=O)Cc1ccc(S(C)(=O)=O)c(Cl)c1 | 54 to 57
89 | CCC12CC(Cl)C3C4CCC(=O)C=C4CCC3C1C(O)CC2=O (centres undefined) | 169 to 170
90 | Cc1csc(C(=O)CCl)c1 | 76 to 77
91 | CC(OCc1ccc(Cl)c2ccccc12)(C(=O)O)C(F)(F)F (centres undefined) | 120 to 121
92 | CN1CCN(c2cccc3c2CC[C@@H](N)C3)CC1 | 98 to 99
93 | CC1(C)CCC(C)(C)c2cc([N+](=O)[O-])c([N+](=O)[O-])cc21 | 200
94 | CC1(C)Cc2c(Cl)c([N+](=O)[O-])cc(C(=O)O)c2O1 | 260 to 262
95 | COc1cccc2c(=O)c(C(=O)C3CCCCC3)c[nH]c12 | 168 to 170
96 | CCn1ncc2c(NCC34CC5CC(CC(C5)C3)C4)c3ccccc3nc21 | 310
97 | CCCc1c(OCCCOc2ccc(CC(=O)OC)cc2Br)ccc(C(C)=O)c1O | 91 to 92
98 | O=C1c2ccc(NC(=O)C3CC3)cc2C(=O)c2cc(NC(=O)C3CC3)ccc21 | 352
99 | COc1ccc(C(C)=C2SCCCS2)cc1C(=O)O | 130 to 132
